SMILES strings stand for the structures. pKd: −log10 of the molar value. Positions of bridges follow the written chain, without caps; N, C: chain ends. Non-standard residues stand in square brackets, D forms with d. Residues, ends and D or L forms follow the SMILES beside them. *: point of attachment. Trp(1-CH2COOH) = N[C@@H](Cc1cn(CC(=O)O)c2ccccc12)C(=O)O; Nle(6-morpholino) = N[C@@H](CCCCN1CCOCC1)C(=O)O; NMePhe(3-Cl) = CN[C@@H](Cc1cccc(Cl)c1)C(=O)O; NMeY = CN[C@@H](Cc1ccc(O)cc1)C(=O)O; PEG4 = NCCOCCOCCOCCOCCC(=O)O; Carboxymethyl = O=C(O)C*

In this assay the target is T1, human transferrin receptor (hTfR) (Homo sapiens, UniProt P02786).
T1 construct: made in house
T1 sequence (P02786 89-760 limits assumed): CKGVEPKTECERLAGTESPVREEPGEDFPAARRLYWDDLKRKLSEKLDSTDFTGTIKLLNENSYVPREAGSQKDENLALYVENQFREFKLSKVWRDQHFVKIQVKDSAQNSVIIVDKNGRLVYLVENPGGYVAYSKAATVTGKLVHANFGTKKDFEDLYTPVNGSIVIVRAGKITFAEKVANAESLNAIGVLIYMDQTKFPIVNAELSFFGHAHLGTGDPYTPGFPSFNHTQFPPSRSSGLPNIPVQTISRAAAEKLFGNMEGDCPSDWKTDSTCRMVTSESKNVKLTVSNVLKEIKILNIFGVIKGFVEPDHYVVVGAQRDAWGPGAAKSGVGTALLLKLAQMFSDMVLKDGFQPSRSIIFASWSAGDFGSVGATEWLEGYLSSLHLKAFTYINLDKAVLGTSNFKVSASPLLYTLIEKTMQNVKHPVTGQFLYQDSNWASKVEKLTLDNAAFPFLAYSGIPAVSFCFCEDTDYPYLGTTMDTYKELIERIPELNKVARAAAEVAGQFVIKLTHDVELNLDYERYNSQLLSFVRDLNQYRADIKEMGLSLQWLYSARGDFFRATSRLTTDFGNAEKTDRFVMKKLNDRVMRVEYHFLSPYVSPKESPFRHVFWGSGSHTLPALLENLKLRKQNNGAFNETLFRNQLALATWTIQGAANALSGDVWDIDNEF
Kind of assay: Evaluation of molecular interaction between transferrin receptor (hTfR) and peptide using surface plasmon resonance (SPR). The format is binding. As to conditions: KD class for binding to hTfR by SPR; peptide with the linker shown in the same line; 'low signal indicates no activity'; read-out: SPR. An outline of the steps:
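KD values are derived by least-squares fitting of single-cycle kinetic sensorgrams. Peptide series (5–100 nM) flows over recombinant hTfR dimer immobilized on a Ni-NTA chip by EDC/NHS coupling, in pH 8.0 HEPES buffer containing 0.1% BSA and 1.0% DMSO.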
(Surface plasmon resonance follows binding to a sensor surface in real time, without labels.)
Turning to `CC[C@H](C)[C@@H]1NC(=O)[C@H](Cc2ccc(OCC(=O)O)cc2)NC(=O)[C@H](Cc2ccc(O)cc2)NC(=O)[C@H](CC(N)=O)NC(=O)[C@H](Cc2cn(CC(=O)O)c3ccccc23)NC(=O)[C@H](C(C)C)NC(=O)[C@H](Cc2cccc(Cl)c2)N(C)C(=O)[C@H](C(C)C)NC(=O)[C@H](C)NC(=O)CSC[C@@H](C(=O)NCCOCCOCCOCCOCCC(N)=O)NC(=O)[C@H](Cc2ccc(O)cc2)N(C)C(=O)[C@H](Cc2ccccc2)NC(=O)[C@H](CCCCN2CCOCC2)NC(=O)[C@H](CCCNC(=N)N)NC(=O)[C@H]([C@@H](C)CC)NC1=O` [894_0389] ({CH2CO}-AV[NMePhe(3-Cl)]V[Trp(1-CH2COOH)]NYY(Carboxymethyl)IIR[Nle(6-morpholino)]F[NMeY]C[PEG4]-NH2; thioether N-15), the pKd is greater than 9.00.
The figure for `CC[C@H](C)[C@@H]1NC(=O)[C@H](Cc2ccc(OCC(=O)O)cc2)NC(=O)[C@H](Cc2ccc(O)cc2)NC(=O)[C@H](CC(N)=O)NC(=O)[C@H](Cc2cn(CC(=O)O)c3ccccc23)NC(=O)[C@H](C(C)C)NC(=O)[C@H](Cc2cccc(Cl)c2)N(C)C(=O)[C@H](C(C)C)NC(=O)[C@H](C)NC(=O)CSC[C@@H](C(=O)NCCOCCOCCOCCOCCC(N)=O)NC(=O)[C@H](Cc2ccc(O)cc2)N(C)C(=O)[C@H](Cc2ccccc2)NC(=O)[C@H](CCCCN2CCOCC2)NC(=O)[C@H](CCCCN2CCOCC2)NC(=O)[C@H]([C@@H](C)CC)NC1=O` [894_0390] ({CH2CO}-AV[NMePhe(3-Cl)]V[Trp(1-CH2COOH)]NYY(Carboxymethyl)II[Nle(6-morpholino)][Nle(6-morpholino)]F[NMeY]C[PEG4]-NH2; thioether N-15) is greater than 9.00; for `CC[C@H](C)[C@@H]1NC(=O)[C@H](Cc2ccc(O)cc2)NC(=O)[C@H](Cc2ccc(O)cc2)NC(=O)[C@H](CC(N)=O)NC(=O)[C@H](Cc2c[nH]c3ccc(Cl)cc23)NC(=O)[C@H](C(C)C)NC(=O)[C@H](Cc2ccccc2)N(C)C(=O)[C@H](C(C)C)NC(=O)[C@H](C)NC(=O)CSC[C@@H](C(=O)NCC(=O)N[C@@H](CCCCN=[N+]=[N-])C(N)=O)NC(=O)[C@H](Cc2ccc(O)cc2)N(C)C(=O)[C@H](Cc2ccccc2)NC(=O)[C@H](CCCNC(=N)N)NC(=O)[C@H](CCCNC(=N)N)NC(=O)[C@H]([C@@H](C)CC)NC1=O` [894_3153] it is 7.00 to 9.00; for `CC[C@H](C)[C@@H]1NC(=O)[C@H](Cc2ccc(OC)cc2)NC(=O)[C@H](Cc2ccc(O)cc2)NC(=O)[C@H](CC(N)=O)NC(=O)[C@H](Cc2c[nH]c3ccc(Cl)cc23)NC(=O)[C@H](C(C)C)NC(=O)[C@H](Cc2ccccc2)N(C)C(=O)[C@H](C(C)C)NC(=O)[C@H](C)NC(=O)CSC[C@@H](C(=O)NCC(=O)N[C@@H](CCCCN=[N+]=[N-])C(N)=O)NC(=O)[C@H](Cc2ccc(O)cc2)N(C)C(=O)[C@H](Cc2ccccc2)NC(=O)[C@H](CCCNC(=N)N)NC(=O)[C@H](CCCNC(=N)N)NC(=O)[C@H]([C@@H](C)CC)NC1=O` [894_3154] it is 7.00 to 9.00.
The figure for `CC[C@H](C)[C@@H]1NC(=O)[C@H](Cc2ccc(OC)cc2)NC(=O)[C@H](Cc2ccc(O)cc2)NC(=O)[C@H](CC(N)=O)NC(=O)[C@H](Cc2c[nH]c3ccc(Cl)cc23)NC(=O)[C@H](C(C)C)NC(=O)[C@H](Cc2ccccc2)N(C)C(=O)[C@H](C(C)C)NC(=O)[C@H](C)NC(=O)CSC[C@@H](C(=O)NCC(=O)N[C@@H](CCCCN=[N+]=[N-])C(N)=O)NC(=O)[C@H](Cc2ccc(O)cc2)N(C)C(=O)[C@H](Cc2ccccc2)NC(=O)[C@@H](CCCNC(=N)N)NC(=O)[C@H](CCCNC(=N)N)NC(=O)[C@H]([C@@H](C)CC)NC1=O` [894_3155] is 7.00 to 9.00.
The figure for `CC[C@H](C)[C@@H]1NC(=O)[C@H](Cc2ccc(OC)cc2)NC(=O)[C@H](Cc2ccc(O)cc2)NC(=O)[C@H](CC(N)=O)NC(=O)[C@H](Cc2c[nH]c3ccc(Cl)cc23)NC(=O)[C@H](C(C)C)NC(=O)[C@H](Cc2ccc(F)cc2)N(C)C(=O)[C@H](C(C)C)NC(=O)[C@H](C)NC(=O)CSC[C@@H](C(=O)NCC(=O)N[C@@H](CCCCN=[N+]=[N-])C(N)=O)NC(=O)[C@H](Cc2ccc(O)cc2)N(C)C(=O)[C@H](Cc2ccccc2)NC(=O)[C@H](CCCNC(=N)N)NC(=O)[C@H](CCCNC(=N)N)NC(=O)[C@H]([C@@H](C)CC)NC1=O` [894_3156] is 7.00 to 9.00.
With `CC[C@H](C)[C@@H]1NC(=O)[C@H](Cc2ccc(OC)cc2)NC(=O)[C@H](Cc2ccc(O)cc2)NC(=O)[C@H](CC(N)=O)NC(=O)[C@H](Cc2c[nH]c3ccc(Cl)cc23)NC(=O)[C@H](C(C)C)NC(=O)[C@H](Cc2ccc(F)cc2)N(C)C(=O)[C@H](C(C)C)NC(=O)[C@H](C)NC(=O)CSC[C@@H](C(=O)NCC(=O)N[C@@H](CCCCN=[N+]=[N-])C(N)=O)NC(=O)[C@H](Cc2ccc(O)cc2)N(C)C(=O)[C@H](Cc2ccccc2)NC(=O)[C@@H](CCCNC(=N)N)NC(=O)[C@H](CCCNC(=N)N)NC(=O)[C@H]([C@@H](C)CC)NC1=O` [894_3157], the pKd was 6.00 to 7.00.
`CC[C@H](C)[C@@H]1NC(=O)[C@H](Cc2ccc(OC)cc2)NC(=O)[C@H](Cc2ccc(O)cc2)NC(=O)[C@H](CC(N)=O)NC(=O)[C@H](Cc2c[nH]c3ccccc23)N(C)C(=O)[C@H](C(C)C)NC(=O)[C@H](Cc2ccncc2)N(C)C(=O)[C@H](C(C)C)NC(=O)[C@H](C)NC(=O)CSC[C@@H](C(=O)NCC(=O)N[C@@H](CCCCN=[N+]=[N-])C(N)=O)NC(=O)[C@H](Cc2ccc(O)cc2)N(C)C(=O)[C@H](Cc2ccccc2)NC(=O)[C@@H](CCCNC(=N)N)NC(=O)[C@H](CCCNC(=N)N)NC(=O)[C@H]([C@@H](C)CC)NC1=O` [894_3158]: the pKd is 7.00 to 9.00.
Take `CC[C@H](C)[C@@H]1NC(=O)[C@H](Cc2ccc(OC)cc2)NC(=O)[C@H](Cc2ccc(O)cc2)NC(=O)[C@H](CC(N)=O)NC(=O)[C@H](Cc2c[nH]c3ccccc23)N(C)C(=O)[C@H](C(C)C)NC(=O)[C@H](Cc2cccc(C(=O)O)c2)N(C)C(=O)[C@H](C(C)C)NC(=O)[C@H](C)NC(=O)CSC[C@@H](C(=O)NCC(=O)N[C@@H](CCCCN=[N+]=[N-])C(N)=O)NC(=O)[C@H](Cc2ccc(O)cc2)N(C)C(=O)[C@H](Cc2ccccc2)NC(=O)[C@@H](CCCNC(=N)N)NC(=O)[C@H](CCCNC(=N)N)NC(=O)[C@H]([C@@H](C)CC)NC1=O` [894_3159]: the pKd was 6.00 to 7.00.
In the case of `CC[C@H](C)[C@@H]1NC(=O)[C@H](Cc2ccc(O)cc2)NC(=O)[C@H](Cc2ccc(O)cc2)NC(=O)[C@H](C)NC(=O)[C@H](Cc2c[nH]c3ccccc23)NC(=O)[C@H](C(C)C)NC(=O)[C@H](Cc2ccccc2)N(C)C(=O)[C@H](C(C)C)NC(=O)[C@H](C)NC(=O)CSC[C@@H](C(=O)NCC(=O)N[C@@H](CCCCN=[N+]=[N-])C(N)=O)NC(=O)[C@H](Cc2ccc(O)cc2)N(C)C(=O)[C@H](Cc2ccc(O)cc2)NC(=O)[C@H](CCCNC(=N)N)NC(=O)[C@H](CCCNC(=N)N)NC(=O)[C@H]([C@@H](C)CC)NC1=O` [894_3160], the pKd was 6.00 to 7.00.
On to `CC[C@H](C)[C@@H]1NC(=O)[C@H](Cc2ccc(O)cc2)NC(=O)[C@H](Cc2ccc(O)cc2)NC(=O)[C@H](CC(N)=O)NC(=O)[C@H](Cc2c[nH]c3ccc(Cl)cc23)NC(=O)[C@H](C(C)C)NC(=O)[C@H](Cc2ccccc2)N(C)C(=O)[C@H](C(C)C)NC(=O)[C@H](C)NC(=O)CSC[C@@H](C(=O)NCC(=O)N[C@@H](CCCCN=[N+]=[N-])C(N)=O)NC(=O)[C@H](Cc2ccc(O)cc2)N(C)C(=O)[C@H](Cc2ccc(O)cc2)NC(=O)[C@H](CCCNC(=N)N)NC(=O)[C@H](CCCNC(=N)N)NC(=O)[C@H]([C@@H](C)CC)NC1=O` [894_3161], for which the pKd is 7.00 to 9.00.
Next, `CC[C@H](C)[C@@H]1NC(=O)[C@H](Cc2ccc(OC)cc2)NC(=O)[C@H](Cc2ccc(O)cc2)NC(=O)[C@H](CC(N)=O)NC(=O)[C@H](Cc2c[nH]c3ccc(Cl)cc23)NC(=O)[C@H](C(C)C)NC(=O)[C@H](Cc2ccccc2)N(C)C(=O)[C@H](C(C)C)NC(=O)[C@H](C)NC(=O)CSC[C@@H](C(=O)NCC(=O)N[C@@H](CCCCN=[N+]=[N-])C(N)=O)NC(=O)[C@H](Cc2ccc(O)cc2)N(C)C(=O)[C@H](Cc2ccc(O)cc2)NC(=O)[C@H](CCCNC(=N)N)NC(=O)[C@H](CCCNC(=N)N)NC(=O)[C@H]([C@@H](C)CC)NC1=O` [894_3162]: 7.00 to 9.00; `CC[C@H](C)[C@@H]1NC(=O)[C@H](Cc2ccc(OC)cc2)NC(=O)[C@H](Cc2ccc(O)cc2)NC(=O)[C@H](CC(N)=O)NC(=O)[C@H](Cc2c[nH]c3ccc(Cl)cc23)NC(=O)[C@H](C(C)C)NC(=O)[C@H](Cc2ccc(F)cc2)N(C)C(=O)[C@H](C(C)C)NC(=O)[C@H](C)NC(=O)CSC[C@@H](C(=O)NCC(=O)N[C@@H](CCCCN=[N+]=[N-])C(N)=O)NC(=O)[C@H](Cc2ccc(O)cc2)N(C)C(=O)[C@H](Cc2ccc(O)cc2)NC(=O)[C@H](CCCNC(=N)N)NC(=O)[C@H](CCCNC(=N)N)NC(=O)[C@H]([C@@H](C)CC)NC1=O` [894_3163]: 7.00 to 9.00; `CC[C@H](C)[C@@H]1NC(=O)[C@H](Cc2ccc(OC)cc2)NC(=O)[C@H](Cc2ccc(O)cc2)NC(=O)[C@H](CC(N)=O)NC(=O)[C@H](Cc2c[nH]c3ccccc23)NC(=O)[C@H](C(C)C)NC(=O)[C@H](Cc2cccc(Cl)c2)N(C)C(=O)[C@H](C(C)C)NC(=O)[C@H](C)NC(=O)CSC[C@@H](C(=O)NCC(=O)N[C@@H](CCCCN=[N+]=[N-])C(N)=O)NC(=O)[C@H](Cc2ccc(O)cc2)N(C)C(=O)[C@H](Cc2ccc(O)cc2)NC(=O)[C@H](CCCNC(=N)N)NC(=O)[C@H](CCCNC(=N)N)NC(=O)[C@H]([C@@H](C)CC)NC1=O` [894_3164]: 7.00 to 9.00.
The figure for `CC[C@H](C)[C@@H]1NC(=O)[C@H](Cc2ccc(OC)cc2)NC(=O)[C@H](Cc2ccc(O)cc2)NC(=O)[C@H](CC(N)=O)NC(=O)[C@H](Cc2c[nH]c3ccccc23)NC(=O)[C@H](C(C)C)NC(=O)[C@H](Cc2cccc(Cl)c2)N(C)C(=O)[C@H](C(C)C)NC(=O)[C@H](C)NC(=O)CSC[C@@H](C(=O)NCC(=O)N[C@@H](CCCCN=[N+]=[N-])C(N)=O)NC(=O)[C@H](Cc2ccc(O)cc2)N(C)C(=O)[C@H](Cc2ccc(O)cc2)NC(=O)[C@H](CCCNC(=N)N)NC(=O)[C@H](CCCCN)NC(=O)[C@H]([C@@H](C)CC)NC1=O` [894_3165] is 7.00 to 9.00.

For the origin of these results see patent publication US20260116920A1, “HUMAN TRANSFERRIN RECEPTOR BINDING PEPTIDE” (PEPTIDREAM INC., priority 2021, published 2026).
